This note sets out measurements from patent US20090192101A1, “CANCER-SPECIFIC PROMOTERS” (priority 2006, published 2009).

Data set [1] relates to normal and other cancer cell lines. Briefly: Transient luciferase assay of promoter activity (electroporation, 24 hrs). Type of data set: cell-based, human. The following applies: 2 μg vector. As for the experimental part:
(§1) Cells (1×10^6) were transfected with 2 μg pGl3-FASN-luciferase vector, as well as 0.2 μg pRL-TK as internal standards by electroporation. The luciferase activity was measured after 24 hrs.
(§2) In FIG. 2, the promoter activities of tight junction protein Claudin 4 in human normal and cancer cells is shown. Cells (1×10^6) were transfected with 2 μg pGl3-claudin 4 luciferase vector, as well as 0.2 μg pRL-TK as internal standards by electroporation. The luciferase activity was measured after 24 hrs.
(§3) Cells (1×10^6) were transfected with 2 μg VISA-claudin 4 or VISA-fatty acid synthase promoter vector, as well as 0.2 μg pRL-TK as internal standards by electroporation. The luciferase activity was measured after 24 hrs.
(§4) 1×10^6 cells were transfected with 2 μg pGl3-FASN-luciferase vector, as well as 0.2 μg pRL-TK as internal standards by electroporation. The luciferase activity was measured after 24 hrs. […]
(§5) Expression of claudin 4 promoter was ascertained in breast cancer cell lines, normal cell lines, and other cancer cell lines by transient luciferase assay. […] The luciferase activity was measured after 24 hrs. […]
(§6) 1×10^6 cells were transfected with 2 μg pGL3-VISA-Claudin4-Luc or pGL3-VISA-FASN-Luc plasmid, as well as 0.2 μg pRL-TK as internal standards by electroporation. The luciferase activities were measured 24 hrs after transient transfection. […]

The subject of the next data set is breast cancer cell lines. Described as above. The following applies: breast cancer cell lines such as T47D, MDA-MB-435, 2 μg vector. It is filed as cell-based, human. As for the experimental part:
as §1, §2, §3, §4, §5, §6

For data set [2], the system named is human normal and cancer cells. Briefly: Transient luciferase assay, promoter activity compared to CMV promoter. It is filed as cell-based. The settings on record: electroporation, 24 hrs. As for the experimental part:
The activities of claudin 4 and fatty acid synthase promoters were compared to CMV promoter. […] 1×10^6 cells were transfected with 2 μg pGl3-claudin 4 luciferase vector, as well as 0.2 μg pRL-TK as internal standards by electroporation. The luciferase activity was measured after 24 hrs. The activities of claudin 4 and fatty acid synthase promoters were much weaker than that of CMV promoter, and were about 0.5% and 5% of CMV expression activity, respectively.

For the substance “FASN promoter: fatty acid synthase promoter driving luciferase in pGl3 vector”, the “promoter expression (luciferase) in normal and other cancer cell lines” value in data set [1] is given as “low”. In addition, in the data set on breast cancer cell lines, the “promoter activity (luciferase) in breast cancer cell lines” value is given as “highly expressed”. Further, the “promoter activity as % of CMV expression activity” value in data set [2] is given as roughly 5%.
